Reference: ChEMBL document CHEMBL3046499, “Synthesis of 2,2-diphenylpropionate derivatives and their effects on larval growth of the silkworm” (2000)
The source made the active and inactive calls. The rule behind the calls is not given here.

Tests used:
Bombyx mori [1] = assay: Insecticidal activity against fourth-instar larval stage of Bombyx mori Shunrei x Shongetsu assessed as fourth-instar larval duration time at 100 ppm administered through artificial diet (reference value: 5.1 +/- 0.2 days); type: functional
Bombyx mori [2] = assay: Insecticidal activity against fourth-instar larval stage of Bombyx mori Shunrei x Shongetsu assessed as fourth-instar larval duration time at 30 ppm administered through artificial diet (reference value: 5.1 +/- 0.2 days); type: functional
Bombyx mori [3] = assay: Insecticidal activity against fourth-instar larval stage of Bombyx mori Shunrei x Shongetsu assessed as delay in increase of hemolymph 20-hydroxyecdysone level at 50 ppm administered through artificial diet measured for 5 days post third ecdysis by ELISA relative to acetone-treated control; type: functional, organism-based

SMILES	Time (Bombyx mori [1]) [days]	Time (Bombyx mori [2]) [days]	Activity (Bombyx mori [3])
CCN1CCN(CCCCCCOC(=O)C(C)(c2ccccc2)c2ccccc2)CC1	4.5	4.7	–
CC(C(=O)OCCCN1CCOCC1)(c1ccccc1)c1ccccc1	6.1	5	–
CN1CCN(CCCOC(=O)C(C)(c2ccccc2)c2ccccc2)CC1	7.5	6.9	–
CCN(CC)CCCOC(=O)C(C)(c1ccccc1)c1ccccc1	5.2	5.1	–
CN(CCCOC(=O)C(C)(c1ccccc1)c1ccccc1)C1CCCCC1	5.6	5	–
CC(C(=O)OCCCN1CCCCC1)(c1ccccc1)c1ccccc1	7.4	5.1	–
CCN1CCN(CCCOC(=O)C(C)(c2ccccc2)c2ccccc2)CC1	7.2	6.5	Active
CCN1CCN(CCCCOC(=O)C(C)(c2ccccc2)c2ccccc2)CC1	6.1	5.6	–
CN1[C@@H]2CC[C@H]1CC(OC(=O)[C@H](CO)c1ccccc1)C2 (stereo partly drawn) [ENDO-ATROPINE]	6.3	5.2	–
CCN1CCN(CCCCCOC(=O)C(C)(c2ccccc2)c2ccccc2)CC1	5.8	5.1	–
CCN1CCN(CCOC(=O)C(C)(c2ccccc2)c2ccccc2)CC1	6.2	5.1	–
CN1C2CCC1CC(OC(=O)C(C)(c1ccccc1)c1ccccc1)C2 (stereo unspecified)	–	6.1	–
CC(C(=O)OCCCN1CCCC1)(c1ccccc1)c1ccccc1	6	5.2	–
